From patent US7648964B2, “Use of lacritin in promoting ocular cell survival” (University of Virginia Patent Foundation, priority 2004, dated 2010)
Entries after “also recorded” stand apart in the source; their conditions may differ.

Tests used:
PKCα [1] = assay: PKCα translocation in HSG cells (immunofluorescence, fractionation); assay type: cell-based, human; conditions: for effect on lacritin-dependent PKCα translocation: pertussis toxin 100 ng/ml, Go 6976, U73122, U73343, cyclosporine 1 μM, nifedipine 10 μM
Text: In order to dissect the molecular pathways leading to the cell survival by lacritin, protein kinases and transcriptional factors were studied by Western blotting and immunofluorescence microscopy.
Images were acquired at 2-3 s intervals using LaserSharp2000 software (Bio-Rad) and store on disc for later analysis.

PKCα [2] = assay: Phospho-PKCα blot of HSG cell lysates; assay type: cell-based, human; conditions: for effect on lacritin-dependent PKCα dephosphorylation: pertussis toxin 100 ng/ml, Go 6976, U73122, U73343 1 μM
Description: (§1) For phosphotyrosine blotting and mitogenesis assays, cells in serum-containing media were seeded overnight in 24-well plates at a density of 0.5×10^5 cells/mm^2 corresponding to 20-30% confluency after cell attachment, incubated in serum-free media without supplements for 24 h (phosphotyrosine) or washed with serum-free media without supplements three times (mitogenesis) and incubated with lacritin (1-1000 nM), or positive controls EGF (1.6 nM) and 10% fetal bovine serum, or negative controls bovine serum albumin or no additive in serum-free media without supplements for the indicated times (phosphotyrosine) or 30 h (mitogenesis). For phosphotyrosine assays, cells were extracted in 1% NP40 containing sodium vanadate (2 mg/ml), DTT (5 mg/ml), protease inhibitors, 50 mM HEPES, 100 mM NaCl, and 2 mM EDTA; then separated by 10% SDS PAGE, transferred and blotted. The following antibodies (Cell Signaling Technology, Beverly Mass.) were tested: antiphosphotyrosine antibody (P-Tyr-100), anti-phospho-PKC αβII, anti-PKCα, anti-phospho-PKCδ, anti-phospho-PKC (pan), anti-p44/42 MAPK, anti-phospho-Raf, anti-phospho-SAPK/JNK, anti-phospho-p38 Map kinase, anti-phospho-Raf, anti-phospho-Akt, anti-phospho-CaMKII, anti-phospho-MARCKS, or anti-tubulin (loading control). After washing, bound antibodies were detected with peroxidase-labeled secondary antibody and ECL. With the exception of at least nine proteins in the P-Tyr-100 blot (FIG. 1), none of the effectors tested above appeared to be phospho-activated during lacritin signaling (not shown). For mitogenesis (Hussaini et al., '00), [^3H]-thymidine (2 mCi/ml) was added for the next 6 h. Incorporation was stopped with ice-cold phosphate buffered saline and followed by addition of cold and then room temperature trichloracetic acid (10%) for 10 min each, washing of cells with phosphate buffered saline, solubilization with 1 N sodium hydroxide, neutralization with 1 N hydrochloric acid, addition of scintillation fluid and then quantitation in a scintillation counter. To deplete PKCα in HSG cells, a pool of four PKCα-specific siRNAs (100 nM) were transfected via LipofectAMINE 2000 in Opti-MEMI Reduced Serum Medium (Invitrogen, Grand Island N.Y.) without serum and antibiotics according to manufacturer's instructions. Each of the four siRNAs was also individually transfected. In negative controls, cells were transfected with a pool of four lamin-specific siRNAs (Upstate LLC, Charlottesville Va.; Dharmacon Inc, Lafayette Colo.). Seventy-two hours post-transfection, mitogenesis was assessed by co-addition of 10 […] lacritin and [^3H]-thymidine (2 mCi/ml) (Amersham, Piscataway N.J.) for 24 hrs. PKCα depletion was confirmed by Western blotting.
We imaged PKCα in cells 15 min after treatment (FIG. 8). Nonmitogenic construct/fragment C-25 (10 nM) had no effect, leaving PKCa diffusely distributed throughout the cytoplasm. […] The phosphorylation state of PKCα influences its translocation site. Hyperphosphorylated PKCα becomes associated with the plasma membrane whereas hypophosphorylated or dephosphorylated PKCα is known to translocate to the perinuclear Golgi region. To determine if the latter is true and if so over what time course, we treated cells with lacritin, N-24 and C-25, and then blotted cell lysates for phospho-PKC ? (FIG. 8B). 10 nM lacritin promotes PKC ? dephosphorylation within 1 min of addition. This form is sustained for at least 15 min, but by 30 min has returned to baseline phosphorylation. Dephosphorylation triggered by increasing molar levels of lacritin or N-24 mirrored the proliferation response with optimal dephosphorylation at 10 nM. Non-mitogenic C-25 had no effect, whereas positive control 4β-phorbol 12-myristate 13-acetate-promoted hyperphosphorylation.

NFATC1 = NFATC1 translocation in HSG cells (immunofluorescence); assay type: cell-based, human; conditions: cyclosporine 1 μM; nifedipine 10 μM
Text: In order to dissect the molecular pathways leading to the cell survival by lacritin, protein kinases and transcriptional factors were studied by Western blotting and immunofluorescence microscopy. […] On the other hand, there were increased activities of transcriptional factors such as nuclear factor of activated T-cells (NFAT) and NF-kappaB. In FIG. 4, translocation of PKC alpha and NFAT was detected by immunofluorescence coupled with confocal microscopic imaging. In resting HSG cells (left three images), PKC alpha distributes mainly in cytosol and membrane. Similarly, NFATc1 was also found to localize largely in cytosol. Cellular co-location of PKC alpha and NFATc1 is apparent upon merging the two immunofluorescent images, as the merged cy3 and FITC labels produce distinctive yellow color.
Images were acquired at 2-3 s intervals using LaserSharp2000 software (Bio-Rad) and store on disc for later analysis. For translocation assays, HSG cells […] phorbol 12-myristate 13-acetate, […], then washed with phosphate-buffered saline, formaldehyde-fixed, blocked with phosphate-buffered saline containing 1% bovine serum albumin and 10% goat serum, incubated with anti-PKCα (C-20) or anti-NFATC1 (mab 7A6) (both from Santa Cruz Biotechnology Inc.; Santa Cruz, Calif.) followed by secondary Cy3-, FITC- or Alexa488-labeled antibodies and confocal microscopic visualization (Bio-Rad Radiance2100).

HSG cells = assay: Calcium mobilization imaging in HSG cells (Fluo-4); assay type: cell-based, human; conditions: for effect on lacritin-stimulated calcium mobilization: preincubation: pertussis toxin 100 ng/ml, or siRNA
Description: Cells were seeded at 1.4×10^4 HSG cells/mm^2 or 0.7×10^4 HSG cells/mm^2 on Matrigel-coated (100 μg/ml; BD Biosciences; San Diego Calif.) coverslips to respectively achieve 70-80% confluency after overnight or 48 h growth in 6-well plates containing phenol red-free Dulbecco's modified Eagle's medium with 10% fetal calf serum.
Other cells were incubated (0.7×10^4HSG cells/mm^2 overnight plating) with 100 ng/ml pertussis toxin (Calbiochem; San Diego Calif.) in phenol red-free Dulbecco's modified Eagle's medium with 10% fetal calf serum; or vehicle alone). Cells were washed with calcium-free/phenol red-free Hanks basic salt solution, 20 mM N-2-hydroxyethylpiperazine-N′-2-ethane sulfonic acid and then incubated for 1 h at room temperature with the same solution containing fluo-4 μM at 4 μM (FluoroPure grade [Molecular Probes; Eugene Oreg.] dissolved in DMSO plus 20% Pluronic F-127). Cells were washed three times for 60 min at room temperature with calcium-free/phenol red-free Hanks basic salt solution with 5 mM Ca^2+ or 5 mM EGTA. Temperature was stabilized for 5 min at 37° C. coverslips were placed on the stage of a TE-200 epifluorescent microscope (Bio-Rad Radiance2100 confocal/multiphoton system using Plan Fluor 60×NA 1.4 Oil IR objective lens [Bio-Rad, Hercules Calif.] as part of the W. M. Keck Center for Cellular Imaging, University of Virginia), subjected to a 488 nm argon laser light source with emission at 528 nm. Baseline monitoring was followed by addition of lacritin or deletion fragments in phenol red-free Hanks basic salt solution.

[3] = system: human salivary ductal (HSG) cells; assay: 3H-thymidine uptake mitogenesis assay; assay type: cell-based; conditions: 10 nM; compared to intact lacritin
Description: as §1

caspase-8 = assay: Caspase-8 activity in human corneal epithelial cells treated with TNF-α; assay type: cell-based
Description: FIG. 12 graphically illustrates the ability of lacritin polypeptides to block TNFα induced caspase-8 activity in human corneal epithelial cells. The ordinate represents relative fluorescence units. White bars indicate 1 hour and diagonally-hatched bars indicate 6 hours.
(§2) Lacritin-induced proliferation and calcium signaling was studied in the human corneal epithelial (HCE) cell line. HCE cells were grown at 37° C. in DMEM F/12 supplemented with 10% FBS and 50 μg/ml gentamicin. Each experiment was done in a dose- and time-dependent manner using TNF-α (5-20 ng/ml) and lacritin (1-10 nM). Cell viability was measured spectrophotometrically at an absorbance of 570 nm using the MTT assay. Caspase-8 activity was detected fluorometrically by measuring cleavage of the fluorogenic substrate IETD-pNA at an excitation wavelength of 405 nm. Lacritin-induced cell proliferation was studied by H3-thymidine incorporation and via fluorescence-based detection of PKC, PLC and cAMP. Calcium signaling was detected by confocal microscopy of Fluo-4 loaded cells.

caspase-9 = assay: Caspase-9 activity in human corneal epithelial cells treated with TNF-α; assay type: cell-based
Description: FIG. 13 graphically illustrates the ability of lacritin polypeptides (10 nM) to block TNFα induced caspase-9 activity in human corneal epithelial cells. The ordinate represents relative fluorescence units. White bars indicate 6 hours and diagonally-hatched bars indicate 9 hours.
Caspase-9 activity was measured in cells treated with various combinations of TNF-α, fragments of lacritin, and the PKC inhibitor Go6976. […] The PKC-α inhibitor Go6976 and C-25 fail to block this increase of the downstream initiator caspase-9.

[4] = system: human corneal epithelial (HCE) cell line; assay: TNF-α-induced cell death in HCE cells (MTT cell viability); assay type: cell-based
Description: as §2

In the case of `CCCCCCCCCCCCCC(=O)O[C@@H]1[C@@H](C)[C@@]2(O)[C@@H](C=C(CO)C[C@]3(O)C(=O)C(C)=C[C@@H]23)[C@@H]2C(C)(C)[C@]12OC(C)=O` [4β-phorbol 12-myristate 13-acetate, reference compound], the PKCα translocation (PKCα [1]; 15 min after treatment) is reported as “concentrated PKCα solely in the plasma membrane” and the “effect on PKCα phosphorylation” value (PKCα [2]) is reported as “hyperphosphorylation”.

For `O=C(O)CN(CCOCCOCCN(CC(=O)O)CC(=O)O)CC(=O)O` [EGTA], the “effect on lacritin-dependent NFATC1 translocation” value (NFATC1) was “non-inhibitory”.

`COc1ccc2c(c1)CC[C@@H]1[C@@H]2CC[C@]2(C)[C@@H](NCCCCCCN3C(=O)C=CC3=O)CC[C@@H]12` [U73122] was tested, and the “effect on lacritin-dependent NFATC1 translocation” value (NFATC1) was “inhibited”, the “effect on lacritin-dependent PKCα translocation” value (PKCα [1]) was “inhibited” and the “effect on carbachol-stimulated calcium mobilization” value (HSG cells; U73122 1 μM, Go 6976 1 μM, even at 10 μM) was “inhibited”. For the same molecule, the “effect on lacritin-stimulated calcium mobilization” value (HSG cells; U73122 1 μM, Go 6976 1 μM) was “inhibited” and the “effect on lacritin-dependent PKCα dephosphorylation” value (PKCα [2]) was “inhibited”.

In the case of `COc1ccc2c(c1)CC[C@@H]1[C@@H]2CC[C@]2(C)[C@@H](NCCCCCCN3C(=O)CCC3=O)CC[C@@H]12` [U73343], the “effect on lacritin-dependent PKCα translocation” value (PKCα [1]) is reported as “full translocation and dephosphorylation” and the “effect on lacritin-dependent PKCα dephosphorylation” value (PKCα [2]) is reported as “full translocation and dephosphorylation”.

In the case of `C[N+](C)(C)CCOC(N)=O` [carbachol], the “calcium mobilization after pertussis toxin preincubation” value (HSG cells; positive control replacing lacritin) is reported as “full calcium mobilization”.

For `[Gd]` [gadolinium], the “effect on lacritin-dependent NFATC1 translocation” value (NFATC1) was “non-inhibitory”.

For `C/C=C(/C)C(=O)O[C@H]1C(C)=C2[C@H]([C@@H]1OC(=O)CCCCCCC)[C@@](C)(OC(C)=O)C[C@H](OC(=O)CCC)[C@@]1(O)[C@H]2OC(=O)[C@@]1(C)O` [thapsigargin], the “effect on lacritin-dependent NFATC1 translocation” value (NFATC1) was “inhibited” and the “effect on lacritin-dependent PKCα translocation” value (PKCα [1]) was “inhibited”.

“C-59: deletion of the 59 carboxy terminal amino acids of mature lacritin (SEQ ID NO:10) (EDASSDSTGADPAQEAGTSKPNEEISGPAEPASPPETTTTAQETSAAAVQGTAKVTSSRQ; homo sapiens)” was tested, and the “mitogenic activity of deletion constructs” value (from here on “mitogenic activity”) [3] was “inactive”.

With TNF-α [reference compound] the “increase in caspase-8 activity” value (caspase-8; TNF-α alone) was “three-fold increase; also recorded: multifold increase”, the “increase in caspase-9 activity” value (caspase-9; TNF-α alone) was “multifold increase” and the TNF-α-induced cell death ([4]; after 18 hr) was 32.2±2.6%. The TNF-α-induced cell death ([4]; after 30 hr) was 73.7±10%.

pertussis toxin was tested, and the “effect on lacritin-dependent NFATC1 translocation” value (NFATC1) was “inhibited”, the “effect on lacritin-dependent PKCα translocation” value (PKCα [1]) was “inhibited” and the “effect on lacritin-stimulated calcium mobilization” value (HSG cells; U73122 1 μM, Go 6976 1 μM) was “completely inhibited”. For the same molecule, the “effect on lacritin-dependent PKCα dephosphorylation” value (PKCα [2]) was “inhibited”.

B1: C-10: deletion of the 10 carboxy terminal amino acids of mature lacritin (SEQ ID NO:10) (protein)
chain: EDASSDSTGADPAQEAGTSKPNEEISGPAEPASPPETTTTAQETSAAAVQGTAKVTSSRQELNPLKSIVEKSILLTEQALAKAGKGMHGGVPGGKQFIENGSEFAQKLL
modifications: homo sapiens
In the case of B1, the “effect on TNF-α-induced caspase-8 activity” value (caspase-8) is reported as “blocked”, the “mitogenic activity” value [3] is reported as “active” and the “effect on TNF-α-induced caspase-9 activity” value (caspase-9; lacritin polypeptides 10 nM) is reported as “blocked”.

B2: C-15: deletion of the 15 carboxy terminal amino acids of mature lacritin (SEQ ID NO:10) (protein)
chain: EDASSDSTGADPAQEAGTSKPNEEISGPAEPASPPETTTTAQETSAAAVQGTAKVTSSRQELNPLKSIVEKSILLTEQALAKAGKGMHGGVPGGKQFIENGSEF
modifications: homo sapiens
For B2, the “mitogenic activity” value [3] was “diminished; also recorded: partially active”.

B3: C-20: deletion of the 20 carboxy terminal amino acids of mature lacritin (SEQ ID NO:10) (protein)
chain: EDASSDSTGADPAQEAGTSKPNEEISGPAEPASPPETTTTAQETSAAAVQGTAKVTSSRQELNPLKSIVEKSILLTEQALAKAGKGMHGGVPGGKQFIE
modifications: homo sapiens
In the case of B3, the “mitogenic activity” value [3] is reported as “completely abrogated activity; also recorded: inactive”.
